In EPA's ToxValDB 9.5:

System: Rattus norvegicus
Conditions: oral
[1] = subchronic, gavage, M, Sprague-Dawley, Relative Organ Weight: Liver increase
[2] = subchronic, gavage, M, Sprague-Dawley, Deaths + Clinical Observation: Salivation Abnormal resp. noise Irregular respiration Loose stool DiarrheaSoiled fur, nasal/urogenital region…

## C=CC(=O)OCCCCCCCCCCCC [Lauryl acrylate]
[1]
  NOAEL: 1000 mg/kg-day
  NOEL: 300 mg/kg-day

## CCn1cc(C(=O)O)c(=O)c2cc(F)c(N3CCNC(C)C3)c(F)c21.Cl (centres undefined) [Lomefloxacin hydrochloride]
chronic, duration: 91 days, gavage, M/F, Sprague-Dawley, Deaths + Clinical Observation: Prone position(dead animals) Hypothermia(dead animals) Lid closure(dead animals) Clonic convulsion(dead …
  NOEL: 30 mg/kg-day

## N#CSCSC#N [Methylene bis(thiocyanate)]
subchronic, gavage, F, Fischer 344, Deaths + Clinical Observation: Abnormal respiratory sounds Reddish tear Hunched posture Dyspnea + Hematology: Hct decrease, Hgb decrease, …
  NOEL: 2 mg/kg-day
subchronic, gavage, M, Fischer 344, Deaths + Clinical Observation: Abnormal respiratory sounds Reddish tear Hunched posture Dyspnea + Hematology: Hct decrease, Hgb decrease, …
  NOEL: 1 mg/kg-day

## COC(=O)C(c1ccccc1)C1CCCCN1.Cl (centres undefined) [Methylphenidate hydrochloride]
subchronic, duration: 13 weeks, diet, F, Fischer 344, Body Weight Changes: decrease + Food Consumption: decrease + Absolute Organ Weight: Brain increase, Liver increase + Relative Organ Weight: …
  NOEL: 18 mg/kg-day
subchronic, duration: 13 weeks, diet, M/F, Fischer 344, Body Weight Changes: decrease + Food Consumption: decrease + Absolute Organ Weight: Brain increase, Liver increase + Relative Organ Weight: …
  NOEL: 24 mg/kg-day

## O=c1c(O)c(-c2ccc(O)cc2O)oc2cc(O)cc(O)c12 [Morin]
subchronic, diet, F, Fischer 344, Body Weight Changes: decrease + Hematology: WBC increase + Blood Chemistry: BUN increase , TP decrease, TG decrease , Alb increase , Cho …
  NOEL: 356 mg/kg-day
subchronic, diet, M/F, Fischer 344, Body Weight Changes: decrease + Hematology: WBC increase + Blood Chemistry: BUN increase , TP decrease, TG decrease , Alb increase , Cho …
  NOEL: 0.625%

## O=C1C=CC(=O)N1c1cccc(N2C(=O)C=CC2=O)c1 [N,N'-1,3-Phenylenedimaleimide]
[2]
  NOAEL: 15 mg/kg-day
  NOEL: < 15 mg/kg-day

## CO[Si](CCCNCCN)(OC)OC [N-[3-(Trimethoxysilyl)propyl]ethane-1,2-diamine]
short-term, duration: 28 days, gavage, M, Sprague-Dawley, Clinical Observation: Perioral soiling Increased nasal sounds Labored respiration Soft vocalization
  NOAEL: 500 mg/kg-day

## O=c1[nH]c2ccccc2n1CCCN1CCN(C(c2ccccc2)c2ccccc2)CC1 [Oxatomide]
subchronic, duration: 30 days, gavage, M/F, Wistar, Deaths + Clinical Observation: Tremor HypersensitivityPiloerection + Body Weight Changes: Body weight gain decrease + Food Consumption: …
  NOEL: 40 mg/kg-day

## Cl.O=C(O)/C=C/c1ccc(Cn2ccnc2)cc1 [Ozagrel hydrochloride]
short-term, duration: 28 days, gavage, M/F, Sprague-Dawley, Deaths + Clinical Observation: Locomotor activity decrease, Respiration rate increase + Body Weight Changes: decrease + Food Consumption: …
  NOEL: 625 mg/kg-day

## CC(C)(Sc1cc(C(C)(C)C)c(O)c(C(C)(C)C)c1)Sc1cc(C(C)(C)C)c(O)c(C(C)(C)C)c1 [Probucol]
chronic, duration: 91 days, gavage, Sprague-Dawley
  NOAEL: > 2250 mg/kg-day

## O=C([O-])C1=Cc2sc(Cn3ccnc3)cc2CC1.[Na+] [RS 5186]
subchronic, duration: 90 days, gavage, M/F, CD, Clinical Observation: Salivation Chylous or dark red-brown urine + Absolute Organ Weight: Liver increase + Relative Organ Weight: Liver …
  NOAEL: 30 mg/kg-day

## C[C@@H](NCCc1ccc(O)cc1)[C@@H](O)c1ccc(O)cc1.Cl [Ritodrine hydrochloride]
subchronic, duration: 35 days, gavage, M/F, Sprague-Dawley, Deaths + Clinical Observation: Locomotor activity decrease, Increased respiration rate Deep respiration Prone, lateral, or supine position …
  NOEL: 32 mg/kg-day

## O=[Se](=O)([O-])[O-].[Na+].[Na+] [Sodium selenate]
subchronic, drinking water, F, Fischer 344, Deaths + Body Weight Changes: decrease + Hematology: Hct increase, Hgb increase, RBC increase + Blood Chemistry: BUN increase ALT increase, …
  NOEL: 0.31 mg/kg-day
subchronic, drinking water, M/F, Fischer 344, Deaths + Body Weight Changes: decrease + Hematology: Hct increase, Hgb increase, RBC increase + Blood Chemistry: BUN increase ALT increase, …
  NOEL: 0.57 mg/kg-day

## O=C1CCC(=O)O1 [Succinic anhydride]
subchronic, duration: 13 weeks, gavage, M/F, Fischer 344, Deaths + Clinical Observation: Lethargy Distended abdomens + Body Weight Changes: decrease + Absolute Organ Weight: Liver increase + …
  NOEL: 50 mg/kg-day

## Nc1ccc(S(N)(=O)=O)cc1 [Sulfanilamide]
short-term, duration: 28 days, gavage, M/F, Sprague-Dawley, Clinical Observation: Salivation + Functional Observational Battery: Auditory response decrease, Disappearance, aerial righting reflex …
  NOEL: 50 mg/kg-day

## O=C(O)c1cc(N=Nc2ccc(S(=O)(=O)Nc3ccccn3)cc2)ccc1O [Sulfasalazine]
subchronic, duration: 13 weeks, gavage, M/F, Fischer 344, Body Weight Changes: decrease + Blood Chemistry: TSH increase T3 decrease T4 decrease + Absolute Organ Weight: Right kidney increase + …
  NOEL: < 84 mg/kg-day

## CCCCCc1cc(O)c2c(c1)OC(C)(C)[C@@H]1CCC(C)=C[C@@H]21 [Tetrahydrocannabinol]
subchronic, duration: 13 weeks, gavage, M/F, Fischer 344, Deaths: Administration groups for 13 weeks(1/10 )(2/10 )(6/10 /10 ) + Clinical Observation: Convulsion Aggressive behavior: Dose is unknown …
  NOEL: < 5 mg/kg-day

## NNC(N)=S [Thiosemicarbazide]
subchronic, gavage, M, Sprague-Dawley, Functional Observational Battery: Tonic convulsion Hypersensitive reaction in touch response and tail pinch response + Body Weight Changes: …
  NOEL: 0.4 mg/kg-day
